Assay results from ChEMBL document CHEMBL3885861, “Open TG-GATES”.

Organism: Rattus norvegicus
Experiment: Open TG-GATES - Regimen: Single
Assay type: toxicity, organism-based, Sprague-Dawley
Set-up: regimen Single, gender Male, age 6 weeks
Conditions: in vivo, po, 30 mg/kg, route gavage, dose level High; for APTT / Bas / Eos / Fbg / Hb / Ht / Lym / MCH / MCHC / MCV / Mono / Neu / PT / Plat / RBC / Ret / WBC: tissue Blood; for KIDNEY_L / KIDNEY_R / KIDNEY_TOTAL: tissue Kidney; for LIVER: tissue Liver; for A/G / ALP / ALT / AST / BUN / CRE / Ca / Cl / DBIL / GLC / IP / K / LDH / Na / PL / RALB / TBIL / TC / TG / TP / gamma-GTP: tissue Plasma

## CN(C)CCC(c1ccc(Cl)cc1)c1ccccn1 (configuration not stated) [CHLORPHENIRAMINE]
3 h
  TERMINAL_BW: 197.2 g
  APTT: 16.3 s
  Bas: 0%
  Eos: 0.8%
  Fbg: 287.6 mg/dL
  Hb: 13.5 g/dL
  Ht: 42.6%
  Lym: 74.2%
  MCH: 21.2 pg
  MCHC: 31.8%
  MCV: 66.5 fL
  Mono: 3.4%
  Neu: 21%
  PT: 14.8 s
  Plat: 128.4 x10_4/uL
  RBC: 640.8 x10_4/ul
  Ret: 10.2%
  WBC: 67.1 x10_2/uL
  KIDNEY_L: 0.9 g
  KIDNEY_R: 0.9 g
  KIDNEY_TOTAL: 1.7 g
  LIVER: 9 g
  A/G: 0.9
  ALP: 1548.6 IU/L
  ALT: 43.6 IU/L
  AST: 79.2 IU/L
  BUN: 8.4 mg/dL
  CRE: 0.1 mg/dL
  Ca: 10.5 mg/dL
  Cl: 108.8 meq/L
  DBIL: 0.008 mg/dL
  GLC: 183.6 mg/dL
  IP: 10 mg/dL
  K: 4.1 meq/L
  LDH: 139.4 IU/L
  Na: 143.4 meq/L
  PL: 146.6 mg/dL
  RALB: 2.6 g/dL
  TBIL: 0.046 mg/dL
  TC: 79 mg/dL
  TG: 59 mg/dL
  TP: 5.5 g/dL
  gamma-GTP: 1.2 IU/L
6 h
  TERMINAL_BW: 191.8 g
  APTT: 24.9 s
  Bas: 0%
  Eos: 0.8%
  Fbg: 302 mg/dL
  Hb: 13.8 g/dL
  Ht: 42.4%
  Lym: 73.2%
  MCH: 20.9 pg
  MCHC: 32.5%
  MCV: 64.2 fL
  Mono: 3.4%
  Neu: 21.8%
  PT: 14.7 s
  Plat: 130.7 x10_4/uL
  RBC: 659.8 x10_4/ul
  Ret: 8.9%
  WBC: 76.3 x10_2/uL
  KIDNEY_L: 0.8 g
  KIDNEY_R: 0.8 g
  KIDNEY_TOTAL: 1.6 g
  LIVER: 8.2 g
  A/G: 0.9
  ALP: 1166.8 IU/L
  ALT: 37.4 IU/L
  AST: 72.4 IU/L
  BUN: 7.6 mg/dL
  CRE: 0.1 mg/dL
  Ca: 10.5 mg/dL
  Cl: 108 meq/L
  DBIL: 0.006 mg/dL
  GLC: 181 mg/dL
  IP: 10.2 mg/dL
  K: 4.4 meq/L
  LDH: 126 IU/L
  Na: 142.4 meq/L
  PL: 138.4 mg/dL
  RALB: 2.5 g/dL
  TBIL: 0.042 mg/dL
  TC: 83.6 mg/dL
  TG: 35 mg/dL
  TP: 5.4 g/dL
  gamma-GTP: 1.4 IU/L
9 h
  TERMINAL_BW: 189.4 g
  APTT: 19.9 s
  Bas: 0%
  Eos: 1%
  Fbg: 317 mg/dL
  Hb: 13.6 g/dL
  Ht: 42.2%
  Lym: 73.8%
  MCH: 20.7 pg
  MCHC: 32.3%
  MCV: 64.2 fL
  Mono: 2.6%
  Neu: 22.2%
  PT: 14.9 s
  Plat: 115 x10_4/uL
  RBC: 656.4 x10_4/ul
  Ret: 9.1%
  WBC: 68.4 x10_2/uL
  KIDNEY_L: 0.9 g
  KIDNEY_R: 0.9 g
  KIDNEY_TOTAL: 1.7 g
  LIVER: 8 g
  A/G: 0.9
  ALP: 1297.6 IU/L
  ALT: 35.2 IU/L
  AST: 71.8 IU/L
  BUN: 7.4 mg/dL
  CRE: 0.1 mg/dL
  Ca: 10.2 mg/dL
  Cl: 106.4 meq/L
  DBIL: 0.008 mg/dL
  GLC: 171.8 mg/dL
  IP: 10.4 mg/dL
  K: 4 meq/L
  LDH: 95 IU/L
  Na: 142.4 meq/L
  PL: 145 mg/dL
  RALB: 2.5 g/dL
  TBIL: 0.056 mg/dL
  TC: 84.2 mg/dL
  TG: 45 mg/dL
  TP: 5.4 g/dL
  gamma-GTP: 1.2 IU/L
24 h
  TERMINAL_BW: 198.3 g
  APTT: 17 s
  Bas: 0.2%
  Eos: 1.2%
  Fbg: 324.6 mg/dL
  Hb: 13.6 g/dL
  Ht: 41.8%
  Lym: 79.8%
  MCH: 20.8 pg
  MCHC: 32.6%
  MCV: 63.8 fL
  Mono: 2.6%
  Neu: 15.6%
  PT: 14.8 s
  Plat: 114.6 x10_4/uL
  RBC: 655.4 x10_4/ul
  Ret: 7.8%
  WBC: 93.8 x10_2/uL
  KIDNEY_L: 0.9 g
  KIDNEY_R: 0.9 g
  KIDNEY_TOTAL: 1.8 g
  LIVER: 8 g
  A/G: 0.9
  ALP: 1572.4 IU/L
  ALT: 45.8 IU/L
  AST: 78.4 IU/L
  BUN: 12.4 mg/dL
  CRE: 0.2 mg/dL
  Ca: 10.8 mg/dL
  Cl: 109 meq/L
  DBIL: 0.012 mg/dL
  GLC: 185 mg/dL
  IP: 7.9 mg/dL
  K: 4.6 meq/L
  LDH: 120.4 IU/L
  Na: 142.4 meq/L
  PL: 145.4 mg/dL
  RALB: 2.6 g/dL
  TBIL: 0.046 mg/dL
  TC: 89.4 mg/dL
  TG: 41.4 mg/dL
  TP: 5.6 g/dL
  gamma-GTP: 1.4 IU/L
